Data taken from paper PMC11204507, “Mechanistic Insights into the Neurotoxicity of 2,5-Dimethoxyphenethylamines (2C) and Corresponding N-(2-methoxybenzyl)phenethylamine (NBOMe) Drugs” (Journal of Xenobiotics, 2024).
Structures can show the parent of a compound that is named as a salt.

Assays:
[1] = system: serotonergic B65 cells; parameters: method as in doi:10.1007/s11419-020-00527-w; conditions: cited from earlier work
[2] = system: MAO-A and MAO-B; conditions: rat model; cited from earlier work
[3] = system: TK6 cells; parameters: method as in PMID 33348640; conditions: 35 µM, 1 h; cited from earlier work
[4] = system: differentiated SH-SY5Y cells; conditions: same experimental conditions; cited from earlier work
[5] = system: differentiated SH-SY5Y cells; parameters: method as in PMID 37631071, PMID 25900438; conditions: same in vitro model; cited from earlier work
[6] = system: differentiated SH-SY5Y cells; parameters: method as in PMID 37631071, PMID 25900438; conditions: same in vitro model; cited from earlier work; remark: listed apart in the source
[7] = system: differentiated SH-SY5Y cells; test: Total glutathione (tGSH) levels, DTNB-GSH recycling assay; format: cell-based, human; conditions: 100 μM, 24 h; control 100.0%
Source text: Glutathione has a critical role in cellular physiology, playing multiple essential roles in maintaining cellular health and function, including antioxidant defense, detoxification, and cellular signaling. The 5,5′-dithiobis(2-nitrobenzoic acid) (DTNB)-GSH recycling assay was used to measure total GSH (tGSH), which includes the reduced (GSH) and oxidized (GSSG) forms of glutathione. The assay relies on the reaction of GSH with DTNB, producing the yellow-colored 5-thio-2-nitrobenzoic acid (TNB). Thus, the TNB generated is directly proportional to the amount of GSH present in the sample [31].
Thus, the SH-SY5Y cells were seeded onto 6-well plates (25,000 cells/cm^2) following the previously described seeding and differentiation protocol. On the day of the experiment, the cells were exposed to different concentrations of the tested drugs (EC20 and EC50) for 24 h (37 °C, 5% CO2). At the end of the incubation period, the cells were centrifuged (5 min, 250 g, 4 °C). For the analysis of extracellular GSH levels, the supernatants were collected, and proteins precipitated with 30% HClO4 for at least 30 min (4 °C). For the analysis of intracellular GSH levels, after collecting the supernatants, the cells were treated with 5% HClO4 for at least 30 min (4 °C). Subsequently, the acidic samples were collected from the plates and centrifuged (5 min, 16,000× g, 4 °C), and the supernatants were stored until further analysis (−80 °C). To assess protein content, the pellets were resuspended in 1M NaOH, maintained at 4 °C overnight, and stored until further analysis (−20 °C). A Bio-Rad DC™ protein assay kit (Bio-Rad Laboratories, Hercules, CA, USA) was used to analyze protein content, in accordance with the manufacturer’s guidelines.
Before the tGSH quantification, the acidic samples were diluted (1:2) with 5% HClO4, and the diluted samples/standards were neutralized with an ice-cold KHCO3 solution (1:1) and centrifuged (5 min, 16,000× g, 4 °C).
Then, 100 µL of supernatant from each sample/standard was transferred into a 96-well plate and 65 µL of an extemporaneous reagent solution (0.68 mM NADPH and 3.96 mM DTNB prepared in a 7.5 pH phosphate buffer) was added to each well, and the plates were incubated for 15 min at 30 °C. After 15 min, 40 μL of a 10 U/mL glutathione reductase solution was added to each well and the formation of 5-thio-2-nitrobenzoic acid (TNB) was monitored every 10 s for 3 min (kinetic mode) at 415 nm in a multi-well plate reader (PowerWaveX, BioTek Instruments, Winooski, VT, USA).
The GSH levels were standardized to protein content. The results are presented as a percentage relative to the control cells (0 µM). A minimum of 6 independent experiments were conducted, in duplicate.
Glutamate/cysteine ligase (GCL), also recognized as gamma-glutamylcysteine synthetase (γ-GCS), is a key enzyme in the first step of glutathione biosynthesis, as it catalyzes the reaction between glutamate and cysteine to produce γ-glutamylcysteine. […] The SH-SY5Y cells were seeded onto 6-well plates (25,000 cells/cm^2) following the previously described seeding and differentiation protocol. On the day of the experiment, the cells were incubated with BSO (100 µM) for 24 h (37 °C, 5% CO2) and the quantification of GSH intracellular levels was achieved according to the previously described method in Section 2.11.

[8] = system: differentiated SH-SY5Y cells; test: Neutral red (NR) uptake cytotoxicity assay; format: cell-based, human
Procedure: The cells were seeded at a density of 25,000 cells/cm^2. To achieve a more mature neuron-like phenotype, SH-SY5Y cells were initially cultured in a complete medium supplemented with RA (10 µM). Subsequently, 3 days post-seeding, TPA (80 nM) was added to each well, and the cells were maintained for another 3 days until use, thus achieving a dopaminergic phenotype. In all the experiments, the cells were used between passages 22 and 28.
The differentiated SH-SY5Y cells (25,000 cells/cm^2) and primary rat cortical cultures (150,000 cells/cm^2) were seeded onto 96-well plates as previously described.
Accordingly, 6 days after seeding (differentiated SH-SY5Y cells) or at 8 DIV (primary cultures), the cells were exposed, for 24 h (37 °C, 5% CO2), to different concentrations of the drugs (0–1000 µM). Thus, the tested concentrations ranged from 0 to 1000 µM for 2C-T-2 and 2C-T-4; 0 to 500 µM for 2C-T-7; 0 to 250 µM for 25T2-NBOMe, and 0 to 100 µM for 25T4-NBOMe and 25T7-NBOMe.
The NR uptake assay is based on the detection of viable cells through the incorporation of the NR dye by the cell’s lysosomes. In brief, after 24 h of exposure to the tested drugs, the differentiated SH-SY5Y cells and primary rat cortical cultures were incubated with NR (50 µg/mL in complete medium) for 90 or 210 min, respectively, at 37 °C, in a 5% CO2-95% air atmosphere. To extract the absorbed dye, an acidified ethanol solution was used, and the absorbance was then measured at 540 nm in a multi-well plate reader (PowerWaveX, BioTek Instruments, Winooski, VT, USA). The cytotoxicity was estimated by the percentage of NR uptake relative to the control cells, and a minimum of 4 independent experiments were conducted in triplicate.

[9] = parameters: method as in earlier work; conditions: reported CHI values of the calibration set; cited from earlier work
[10] = system: differentiated SH-SY5Y cells; test: Mitochondrial membrane potential, JC-1 dye; format: cell-based, human; conditions: positive control, 100 µM, 2 h
Source text: Mitochondrial membrane potential (ΔΨm) is a valuable parameter that reflects the energy status and functional integrity of cells, and the JC-1 dye is widely used as an indicator of ΔΨm. In healthy cells with high ΔΨm, JC-1 forms J-aggregates that emit red fluorescence. In apoptotic or unhealthy cells with low ΔΨm, JC-1 remains in its monomeric form and emits green fluorescence. The ratio of red to green fluorescence intensity is proportional to the degree of polarization of the mitochondrial membrane (a higher ratio indicates a more polarized membrane).
Thus, the SH-SY5Y cells were seeded onto 24-well plates (25,000 cells/cm^2) following the previously described seeding and differentiation protocol. On the day of the experiment, the cells were exposed to different concentrations of the tested drugs (EC20 and EC50) for 24 h (37 °C, 5% CO2). CCCP (100 µM, 2 h) was used as a positive control for mitochondrial membrane depolarization. At the end of the incubation period, the medium was removed, and the cells were incubated, for 30 min, with 10 µM JC-1 under light protection (37 °C, 5% CO2). Subsequently, the plates were centrifuged (5 min, 300× g, room temperature), the supernatants were rejected, and the cells were washed 2 times with warm HBSS with calcium and magnesium. Fluorescence was recorded at the wavelengths of 485 nm excitation and 535 nm emission for JC-1 monomers and 535 nm excitation and 595 nm emission wavelengths for J-aggregates in a multi-well plate reader (PowerWaveX, BioTek Instruments, Winooski, VT, USA). The results are presented as the percentage of JC-1 red/green fluorescence ratio relative to the control cells, and a minimum of 5 independent experiments were conducted in triplicate.

[11] = system: differentiated SH-SY5Y cells; test: Intracellular calcium levels, Fluo-4 AM probe; format: cell-based, human; conditions: positive control, 25 mM
Procedure: Calcium is a vital second messenger for almost every cellular process, including cellular signaling, muscle function, neurotransmitter release, membrane function, and apoptosis. Therefore, its levels inside cells are strictly controlled to maintain cellular homeostasis. The intracellular calcium levels were measured using the cell-permeable Fluo-4 AM probe. Inside the cells, Fluo-4 AM is cleaved to its active and fluorescent form—Fluo-4—which has a high affinity for calcium ions (Ca^2⁺). Thus, its fluorescence emission is directly proportional to the concentration of calcium ions in the intracellular environment.
Therefore, the SH-SY5Y cells were seeded onto 96-well plates (25,000 cells/cm^2) following the previously described seeding and differentiation protocol. […] The average value for negative control (EGTA-treated cells) was subtracted from every other condition and then the minimum average value was subtracted from the maximum average value for every other condition. The results are presented as a percentage relative to the control cells (0 µM). A minimum of 5 independent experiments were conducted in triplicate.

## COc1cc(CCN)c(OC)cc1Cl [2C-C, reference compound]
[1]
  mitochondrial production of ROS: no significant alterations

## COc1cc(CCN)c(OC)cc1C [2C-D]
[2]
  deamination by MAO-A and MAO-B: both isoenzymes can catalyze the deamination

## CCc1cc(OC)c(CCN)cc1OC [2C-E]
[2]
  deamination by MAO-A and MAO-B: both isoenzymes can catalyze the deamination

## COc1ccc(OC)c(CCN)c1 [2C-H]
[3]
  increase in ROS levels: two-fold

## COc1cc([N+](=O)[O-])c(OC)cc1CCN [2C-N]
[4]
  drug-induced cytotoxicity upon MAO inhibition: significant increase in the drug-induced cytotoxicity was observed upon MAO inhibition
[5]
  ROS production: no ROS production
[6]
  tGSH content: significant decrease in the tGSH content

## COc1cc(CCNCc2ccccc2OC)c(OC)cc1Cl [25C-NBOMe]
[5]
  ROS production: no ROS production
[6]
  tGSH content: significant decrease in the tGSH content

## COc1cc([N+](=O)[O-])c(OC)cc1CCNCc1ccccc1OC [25N-NBOMe]
[4]
  drug-induced cytotoxicity upon MAO inhibition: significant increase in the drug-induced cytotoxicity was observed upon MAO inhibition

## CCCCS(=N)(=O)CCC(N)C(=O)O [BSO, L-buthionine sulfoximine, reference compound]
[7]
  GSH intracellular levels, % of control cells: 9.2%
[8]; 100 μM, 24 h (Figure S2: + 50 μM for an additional 24 h)
  cytotoxicity, NR uptake: No significant cytotoxic effects

## c1ccc(CN2CCNCC2)cc1 [BZP]
[5]
  ROS production: no ROS production
[6]
  tGSH content: significant decrease in the tGSH content

## c1ccc2[nH]cnc2c1 [Benzimidazole]
[9]
  CHI0 pH 2.3: 6.3

## CCCC(=O)c1ccccc1 [Butyrophenone]
[9]
  CHI0 pH 2.3: 87.3

## N#CC(C#N)=NNc1cccc(Cl)c1 [CCCP, carbonyl cyanide 3-chlorophenylhydrazone, reference compound]
[10]
  mitochondrial membrane polarization (JC-1 red/green ratio), % of the control cells: 56.3%

## [Ca+2].[Cl-].[Cl-] [CaCl2, reference compound]
[11]
  Ca2+ intracellular levels, % of control cells: 141.0%

## Cn1c(=O)c2c(ncn2C)n(C)c1=O [Caffeine, caffeine]
[9]
  CHI0 pH 2.3: 23.41

## NC(=O)N1c2ccccc2C=Cc2ccccc21 [Carbamazepine]
[9]
  CHI0 pH 2.3: 60.42

## COc1cc2c(c(OC)c1OC)-c1ccc(OC)c(=O)cc1[C@@H](NC(C)=O)CC2 [Colchicine]
[9]
  CHI0 pH 2.3: 43.9

## c1ccc2[nH]ccc2c1 [Indole]
[9]
  CHI0 pH 2.3: 72.1

## c1cc2c(cc1CN1CCNCC1)OCO2 [MDBP]
[5]
  ROS production: no ROS production
[6]
  tGSH content: significant decrease in the tGSH content

## COc1ccc(N2CCNCC2)cc1 [MeOPP]
[5]
  ROS production: no ROS production
[6]
  tGSH content: significant decrease in the tGSH content

## CC(=O)Nc1ccc(O)cc1 [Paracetamol]
[9]
  CHI0 pH 2.3: 18.77

## CCC(=O)c1ccccc1 [Propiophenone]
[9]
  CHI0 pH 2.3: 77.4

## FC(F)(F)c1cccc(N2CCNCC2)c1 [TFMPP]
[5]
  ROS production: no ROS production
[6]
  tGSH content: significant decrease in the tGSH content

## Cn1c(=O)c2[nH]cnc2n(C)c1=O [Theophyline, theophylline]
[9]
  CHI0 pH 2.3: 17.9

## C#CCN(C)CCCOc1ccc(Cl)cc1Cl [clorgyline, reference compound]
[8]; 1 μM, 24 h of exposure
  cytotoxicity, NR uptake: Neither clorgyline nor rasagiline (1 μM) showed significant cytotoxicity

## COc1ccccc1CNCCc1cc(OC)c(OC)c(OC)c1 [mescaline-NBOMe]
[4]
  drug-induced cytotoxicity upon MAO inhibition: significant increase in the drug-induced cytotoxicity was observed upon MAO inhibition
[5]
  ROS production: no ROS production
[6]
  tGSH content: significant decrease in the tGSH content

## COc1cc(CCN)cc(OC)c1OC [mescaline]
[4]
  drug-induced cytotoxicity upon MAO inhibition: significant increase in the drug-induced cytotoxicity was observed upon MAO inhibition
[5]
  ROS production: no ROS production
[6]
  tGSH content: significant decrease in the tGSH content

## C#CCN[C@@H]1CCc2ccccc21 [rasagiline, rasagiline mesylate, reference compound]
[8]; 1 μM, 24 h of exposure
  cytotoxicity, NR uptake: Neither clorgyline nor rasagiline (1 μM) showed significant cytotoxicity
